PubChem BioAssay (NCI)
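All cell lines were grown in 96-well plates and treated with compound for 48 hours. TGI is the concentration that stops growth completely.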

How the values were obtained:
Assay in all cases: inhibition of tumour cell growth, NCI panel, 48 h
A498 renal = test system: A498 renal
MDA-MB-435 = test system: MDA-MB-435
HT29 colon = test system: HT29 colon
HCT-116 colon = test system: HCT-116 colon
KM12 colon = test system: KM12 colon
ACHN renal = test system: ACHN renal
CAKI-1 renal = test system: CAKI-1 renal
TK-10 renal = test system: TK-10 renal
OVCAR-5 ovarian = test system: OVCAR-5 ovarian
OVCAR-4 ovarian = test system: OVCAR-4 ovarian
SF-539 CNS = test system: SF-539 CNS
NCI-H522 lung = test system: NCI-H522 lung
SNB-19 CNS = test system: SNB-19 CNS
DU-145 prostate = test system: DU-145 prostate
COLO 205 colon = test system: COLO 205 colon
SK-MEL-28 melanoma = test system: SK-MEL-28 melanoma
OVCAR-3 ovarian = test system: OVCAR-3 ovarian
MDA-N = test system: MDA-N

Compound | TGI (A498 renal) [µM] | TGI (MDA-MB-435) [µM] | TGI (HT29 colon) [µM] | TGI (HCT-116 colon) [µM] | TGI (KM12 colon) [µM] | TGI (ACHN renal) [µM] | TGI (CAKI-1 renal) [µM] | TGI (TK-10 renal) [µM] | TGI (OVCAR-5 ovarian) [µM] | TGI (OVCAR-4 ovarian) [µM] | TGI (SF-539 CNS) [µM] | TGI (NCI-H522 lung) [µM] | TGI (SNB-19 CNS) [µM] | TGI (DU-145 prostate) [µM] | TGI (COLO 205 colon) [µM] | TGI (SK-MEL-28 melanoma) [µM] | TGI (OVCAR-3 ovarian) [µM] | TGI (MDA-N) [µM]
COc1ccc(Cc2cc(OC)c(OC)c(OC)c2)cc1 | 24.6 | > 100 | 8.25 | 12.4 | > 100 | > 93.3 | > 51.7 | > 100 | > 100 | > 100 | 1.76 | 0.798 | > 100 | 6.38 | 1.51 | > 100 | 0.424 | 
O=C1C[C@@H]2[C@@H](CCC23CCCC3)N1 | > 100 |  | > 100 | > 100 | > 100 | > 100 | > 100 | > 100 | > 100 | > 100 | > 100 | > 100 | > 100 |  | > 100 | > 100 | > 100 | 
CSCCC(NC(=O)Cc1ccc(C(=O)c2ccccc2)cc1)C(=O)N1CCN(CCCCN2c3ccccc3Sc3cc(N=[N+]=[N-])ccc32)CC1 (stereo not given) | > 100 |  | > 100 | > 100 | > 100 | > 100 | > 100 | > 100 | > 100 | > 100 |  | > 100 |  | > 100 | > 100 |  | > 100 | 
CC(NC(=O)C(N)CC(=O)O)C(=O)OC12CC3CC(CC(C3)C1)C2 (stereo not given) |  | > 100 | > 100 | > 100 | > 100 | > 100 | > 100 | > 100 | > 100 | > 100 |  | > 100 | > 100 | > 100 | > 100 | > 100 |  | 
CC(=O)NNc1nc(C)c(C(/C=C/c2ccc(Cl)cc2)=N\N=C(N)N)s1 |  |  | > 100 | > 100 | > 100 | > 100 | > 100 | > 100 | > 100 | > 100 | > 100 | > 100 | > 100 |  | > 100 | > 100 | > 100 | 
C=CCOC1CC(n2cnc3c(N)ncnc32)OC1CO (stereo not given) |  |  | > 100 | > 100 | > 100 | > 100 | > 100 | > 100 | > 100 | > 100 | > 100 | > 100 | > 100 |  | > 100 | > 100 | > 100 | 
Fc1ccc(Oc2nc3ccccc3nc2-c2ccccc2)cc1 | > 100 | > 100 | > 100 | > 100 | > 100 | > 100 | > 100 | > 100 | > 100 | > 100 |  | > 100 | > 100 | > 100 | > 100 | > 100 | > 100 | 
Cc1ccc(C(=O)C(c2nc3n(c2O)C(=N)N=N3)c2nc3n(c2O)C(=N)N=N3)cc1 (stereo not given) | > 100 |  | > 100 |  | > 100 | > 100 | > 100 | > 100 | > 100 | > 100 | > 100 | > 100 | > 100 |  | > 100 | > 100 | > 100 | 
Cc1ccc(C(=O)O)c(/C=C2\Cc3cc(C)cc(C)c3C2=O)c1 | > 100 |  | > 100 | > 100 | > 100 | > 100 | > 100 | > 100 |  |  | > 100 | > 100 | > 100 | > 100 |  | > 100 | > 100 | > 100
O=C(CC(=O)N1N=C(n2ccc3ccccc32)CC1c1ccccc1)Nc1ccc(Cl)cc1 (stereo not given) | > 100 |  | > 100 | > 100 | > 100 | > 100 |  | > 100 | > 100 | > 100 | > 100 | > 100 | > 100 |  | > 100 | > 100 | > 100 | 
O=C1N=CN=C2C=CC(Cl)=C(I)C12 (stereo not given) | > 100 |  | > 100 | > 100 | > 100 | > 100 | > 100 | > 100 | > 100 | > 100 |  |  | > 100 |  | > 100 | > 100 | > 100 | 
O=C(NC1CCN(Cc2ccccc2)CC1)c1cccc(I)c1 | > 100 | 34.9 | 43.7 | 28.9 | 33.6 | > 100 | 54.5 | 65.2 | > 100 | > 100 | 51.6 | 32.9 | > 100 | > 100 | 32.5 | 37.4 | > 100 | 
